Test results as given in ChEMBL document CHEMBL1909046, “DrugMatrix in vitro pharmacology data”.

Columns and labels:
Insulin receptor = Insulin receptor (Rattus norvegicus, UniProt P15127); format: cell membranes, Wistar, Liver, Membrane; further: in other assays of this panel Not Active means under 50% inhibition at 10 µM
[1] = DRUGMATRIX: Sigma2 radioligand binding (ligand: [3H] Ifenprodil); format: cell membranes, Rattus norvegicus, Wistar, Brain, Membrane; conditions: Not Active = under 50% inhibition at 10 µM
[2] = DRUGMATRIX: Phosphodiesterase PDE3 enzyme inhibition (substrate: [3H]cAMP + cAMP); format: tissue-based, Homo sapiens; conditions: platelet, Not Active = under 50% inhibition at 10 µM
[3] = target: T1, Type-2 angiotensin II receptor (Homo sapiens, UniProt P50052); format: cell-based; conditions: cho-k1; further: in other assays of this panel Not Active means under 50% inhibition at 10 µM
T1 sequence (P50052 whole entry): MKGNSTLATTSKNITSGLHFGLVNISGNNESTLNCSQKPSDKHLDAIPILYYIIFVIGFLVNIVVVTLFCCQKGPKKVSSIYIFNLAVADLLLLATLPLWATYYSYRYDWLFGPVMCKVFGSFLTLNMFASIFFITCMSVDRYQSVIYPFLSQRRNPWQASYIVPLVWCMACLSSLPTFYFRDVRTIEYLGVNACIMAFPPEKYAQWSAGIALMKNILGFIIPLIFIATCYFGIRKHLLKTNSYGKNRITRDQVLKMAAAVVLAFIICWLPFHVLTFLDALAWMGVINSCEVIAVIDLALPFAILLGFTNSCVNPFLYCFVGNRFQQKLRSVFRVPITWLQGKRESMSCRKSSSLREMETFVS

[4] = target: T2, Muscarinic acetylcholine receptor M4 (Homo sapiens, UniProt P08173); format: cell membranes, CHO-K1, Membrane; conditions: cho-k1; further: in other assays of this panel Not Active means under 50% inhibition at 10 µM
T2 sequence (P08173 whole entry): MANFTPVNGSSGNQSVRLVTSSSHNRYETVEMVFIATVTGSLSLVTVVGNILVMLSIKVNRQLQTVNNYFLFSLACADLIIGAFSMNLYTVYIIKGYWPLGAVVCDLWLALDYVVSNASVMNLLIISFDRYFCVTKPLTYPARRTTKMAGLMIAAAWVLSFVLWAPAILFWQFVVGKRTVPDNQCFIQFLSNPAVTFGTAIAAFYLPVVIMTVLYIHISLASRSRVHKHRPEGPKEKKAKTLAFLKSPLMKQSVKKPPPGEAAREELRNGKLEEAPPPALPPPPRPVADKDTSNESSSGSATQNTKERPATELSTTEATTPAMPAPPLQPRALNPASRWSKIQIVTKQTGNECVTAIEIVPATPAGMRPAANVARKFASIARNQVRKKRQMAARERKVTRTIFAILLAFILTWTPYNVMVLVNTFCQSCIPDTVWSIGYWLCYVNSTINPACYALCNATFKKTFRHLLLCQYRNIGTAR

Chain of Insulin receptor (P15127 27-759 limits assumed): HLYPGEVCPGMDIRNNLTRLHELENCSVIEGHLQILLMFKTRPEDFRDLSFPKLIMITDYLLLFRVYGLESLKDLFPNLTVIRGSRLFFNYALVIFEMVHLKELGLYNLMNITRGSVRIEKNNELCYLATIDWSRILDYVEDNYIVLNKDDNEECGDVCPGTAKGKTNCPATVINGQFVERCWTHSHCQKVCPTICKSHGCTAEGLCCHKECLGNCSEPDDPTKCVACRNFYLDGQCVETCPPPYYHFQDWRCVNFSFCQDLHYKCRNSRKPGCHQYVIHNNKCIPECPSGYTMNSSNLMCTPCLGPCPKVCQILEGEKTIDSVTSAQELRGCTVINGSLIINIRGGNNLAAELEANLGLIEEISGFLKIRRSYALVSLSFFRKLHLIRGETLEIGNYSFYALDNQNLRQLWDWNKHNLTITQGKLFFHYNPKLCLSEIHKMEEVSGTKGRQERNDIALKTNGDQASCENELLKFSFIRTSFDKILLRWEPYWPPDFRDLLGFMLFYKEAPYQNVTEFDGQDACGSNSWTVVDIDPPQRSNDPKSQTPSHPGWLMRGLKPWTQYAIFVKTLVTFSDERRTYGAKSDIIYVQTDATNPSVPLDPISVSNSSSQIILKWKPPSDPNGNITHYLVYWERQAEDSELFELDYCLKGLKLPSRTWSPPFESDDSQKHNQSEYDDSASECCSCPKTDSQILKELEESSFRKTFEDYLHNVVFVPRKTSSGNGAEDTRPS
Chain of Insulin receptor (P15127 764-1383 limits assumed): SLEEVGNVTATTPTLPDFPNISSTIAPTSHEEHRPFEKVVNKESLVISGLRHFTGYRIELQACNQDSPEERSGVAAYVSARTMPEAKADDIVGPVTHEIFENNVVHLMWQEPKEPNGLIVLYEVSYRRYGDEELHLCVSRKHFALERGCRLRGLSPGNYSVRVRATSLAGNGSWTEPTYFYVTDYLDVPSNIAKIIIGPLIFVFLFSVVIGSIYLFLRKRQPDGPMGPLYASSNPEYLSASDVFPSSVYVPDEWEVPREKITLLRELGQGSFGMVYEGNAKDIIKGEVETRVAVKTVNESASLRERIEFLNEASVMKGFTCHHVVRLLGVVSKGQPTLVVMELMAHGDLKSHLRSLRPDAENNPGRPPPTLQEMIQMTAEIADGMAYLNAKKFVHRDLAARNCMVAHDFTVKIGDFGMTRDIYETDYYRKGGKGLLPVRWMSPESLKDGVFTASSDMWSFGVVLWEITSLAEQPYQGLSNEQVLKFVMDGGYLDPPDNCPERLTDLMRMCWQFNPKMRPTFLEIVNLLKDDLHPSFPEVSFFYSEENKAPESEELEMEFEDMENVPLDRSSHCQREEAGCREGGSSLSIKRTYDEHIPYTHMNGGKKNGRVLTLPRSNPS

SMILES	IC50 (Insulin receptor)	IC50 [1]	Ki [1]	IC50 [2]	Ki [2]	IC50 [3]	IC50 [4]	IC50 ([2]; read-out: IC50)
CCc1oc2ccccc2c1C(=O)c1cc(Br)c(O)c(Br)c1 [BENZBROMARONE]	Not Active	Not Active	Not Active	Not Active	Not Active	Not Active	Not Active	–
CCC[C@@H]1C[C@@H](C(=O)N[C@@H]([C@H]2O[C@H](SC)[C@H](O)[C@@H](O)[C@H]2O)[C@H](C)Cl)N(C)C1 [CLINDAMYCIN]	Not Active	Not Active	Not Active	Not Active	Not Active	Not Active	Not Active	–
CN(Cc1cnc2nc(N)nc(N)c2n1)c1ccc(C(=O)N[C@@H](CCC(=O)O)C(=O)O)cc1 [METHOTREXATE]	Not Active	Not Active	Not Active	Not Active	Not Active	Not Active	Not Active	–
C/C=C\c1ccc(O)c(OC)c1 [ISOEUGENOL]	Not Active	Not Active	Not Active	Not Active	Not Active	Not Active	Not Active	–
Cc1cnc(C(=O)NCCc2ccc(S(=O)(=O)NC(=O)NC3CCCCC3)cc2)cn1 [GLIPIZIDE]	Not Active	Not Active	Not Active	Not Active	Not Active	Not Active	Not Active	–
CC(=O)O[C@]1(C(C)=O)CC[C@H]2[C@@H]3C=C(C)C4=CC(=O)CC[C@]4(C)[C@H]3CC[C@@]21C [MEGESTROL ACETATE]	Not Active	Not Active	Not Active	Not Active	Not Active	Not Active	Not Active	–
CC[C@H](C)C(=O)O[C@H]1C[C@@H](C)C=C2C=C[C@H](C)[C@H](CC[C@@H]3C[C@@H](O)CC(=O)O3)[C@H]21 [LOVASTATIN]	Not Active	Not Active	Not Active	Not Active	Not Active	Not Active	Not Active	–
O=C(c1ccccc1Cl)N1CCC(Cc2ccccc2)CC1	Not Active	Not Active	Not Active	Not Active	Not Active	Not Active	Not Active	–
N[C@@H](Cc1ccc(F)cc1)C(=O)O	Not Active	Not Active	Not Active	Not Active	Not Active	Not Active	Not Active	–
C#C[C@]1(O)CC[C@H]2[C@@H]3CCC4=Cc5oncc5C[C@]4(C)[C@H]3CC[C@@]21C [DANAZOL]	Not Active	Not Active	Not Active	–	–	Not Active	Not Active	2540 nM
OCCN1CCN(CCCN2c3ccccc3Sc3ccc(Cl)cc32)CC1 [PERPHENAZINE]	Not Active	Not Active	Not Active	Not Active	Not Active	Not Active	Not Active	–
CCOC(=O)C1=C(C)NC(C)=C(C(=O)OC)C1c1cccc(Cl)c1Cl (centres undefined) [FELODIPINE]	Not Active	Not Active	Not Active	Not Active	Not Active	Not Active	Not Active	–
C[C@@H]1CC[C@H]2[C@@H](C)C(=O)O[C@@H]3O[C@@]4(C)CC[C@@H]1[C@]32OO4 [ARTEMISININ]	Not Active	Not Active	Not Active	Not Active	Not Active	Not Active	Not Active	–
CN1C(=O)CN=C(c2ccccc2)c2cc(Cl)ccc21 [DIAZEPAM]	Not Active	Not Active	Not Active	Not Active	Not Active	Not Active	Not Active	–
O=C(O)c1cccnc1 [NIACIN]	Not Active	Not Active	Not Active	Not Active	Not Active	Not Active	Not Active	–
